Assay results taken from patent publication US20250353859A1, “COMPOUNDS AS CCR6 INHIBITORS” (Hoffmann-La Roche Inc., priority 2023, published 2025).

Legend:
[1] = molecular target: T1, human CCR6 (Homo sapiens, UniProt P51684); assay: Human CCR6-CRE reporter assay; format: cell-based; set-up: The second construct contained the open reading frame of human CCR6 in the pUNO1 backbone; host or cells: 293FT cells (transient transfection with TransIT-293); conditions: 293FT cells transfected with human CCR6 and CRE-luciferase; Forskolin + CCL20, 5 h; relative Log IC50; read-out: CCR6-CRE reporter (converted)
T1 sequence (P51684 1-374): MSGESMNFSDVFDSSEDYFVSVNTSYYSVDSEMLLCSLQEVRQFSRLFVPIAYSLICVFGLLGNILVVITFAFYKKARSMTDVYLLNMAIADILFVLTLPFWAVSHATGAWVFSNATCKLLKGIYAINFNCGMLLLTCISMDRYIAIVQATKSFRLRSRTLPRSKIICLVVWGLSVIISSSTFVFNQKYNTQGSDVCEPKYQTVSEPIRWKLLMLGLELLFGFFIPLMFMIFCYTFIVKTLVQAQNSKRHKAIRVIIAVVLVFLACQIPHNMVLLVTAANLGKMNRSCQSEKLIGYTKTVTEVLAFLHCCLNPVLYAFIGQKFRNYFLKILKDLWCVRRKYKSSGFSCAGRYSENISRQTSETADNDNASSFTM
In short: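 293FT cells transiently co-transfected with human CCR6 and a CRE-luc2P reporter, used 48 h later. Compounds in medium with 6 μM forskolin and 6 nM CCL20, 0.1% DMSO final, 5 h at 37° C. Luminescence read; relative log IC50 from a four-parameter fit.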

[2] = system: Human CD4+ T cells; assay: CD4+ T cells chemotaxis assay towards CCL20; format: cell-based; conditions: CD4+ T cell, 3 h
Excerpt: Human CD4+ T cells were isolated from buffy coats of healthy donors using aCD4+ T Cell Isolation Kit(Miltenyi Biotec 130-096-533). Isolated T cells were stimulated overnight with anti-CD3 and anti-CD28 antibodies (Biolegend 300314/302934) in growth medium (RPMI1640, 10% heat-inactivated FBS, 1× pen/strep (Gibco 15140)). For the chemotaxis assay, Corning Transwell plates were used with a pore size of 5 m (Corning 3388). T cells were counted and diluted to 6*10^6 cells/ml in chemotaxis medium (RPMI1640, 1% BSA, pen/strep). Compounds were four-fold serially diluted in DMSO. Further dilutions were made in chemotaxis medium. Cells were incubated with test compounds for 30 min at 37° C. prior to initiation of the assay (3*10^6 cells/ml). Final DMSO concentration in the assay was 0.2%. Wells of the Transwell plates were filled with 200 μl chemotaxis medium containing 150 ng/ml CCL20 (R&D systems 360-MP). 50 μl of the cell/compound suspension was added to the inserts of the Transwell plates (150,000 cells/insert). The Transwell plates were placed in an incubator at 37° C., 5% CO2 for 3 h. After 3 h, the number of migrated cells was quantified using CellTiter Glo (Promega). Percentage inhibition values were calculated based on the low and high signal obtained with 0.2% DMSO in chemotaxis medium without and with CCL20, respectively. The relative Log IC50 was determined with GraphPad Prism 9 using a four-parameter dose-response model.

IC50 [1] [nM]	IC50 [2] [nM]	Structure (SMILES)
39.8	12.6	Cc1nnc2ccc(-c3ccc(S(=O)(=O)N4CCC(Nc5ccc(SC(F)(F)F)cn5)CC4)cc3)cn12 [Example 67, N-[1-(4-{3-methyl-[1,2,4]triazolo[4,3-a]pyridin-6-yl}benzenesulfonyl)piperidin-4-yl]-5-[(trifluoromethyl)sulfanyl]pyridin-2-amine]
100	20	CNC(=O)c1cccc(-c2ccc(S(=O)(=O)N3CCC(Nc4ccc(OC(F)(F)F)cc4)CC3)cc2)c1 [Example 4, N-methyl-4′-[(4-{[4-(trifluoromethoxy)phenyl]Amino}piperidin-1-yl)sulfonyl]-[1,1′-biphenyl]-3-carboxamide]
39.8	3.98	Cc1n[nH]c2ncc(-c3ccc(S(=O)(=O)[C@H]4CC[C@H](Nc5ccc(SC(F)(F)F)cc5)CC4)cc3)cc12 [Example 72, N-[trans-4-(4-{3-methyl-1H-pyrazolo[3,4-b]pyridin-5-yl}benzenesulfonyl)cyclohexyl]-4-[(trifluoromethyl)sulfanyl]aniline]
31.6	1.58	CC(C)c1nnc2cnc(-c3ccc(S(=O)(=O)N4CCC(Nc5ccc(SC(F)(F)F)cn5)CC4)cc3)cn12 [Example 66, N-(1-{4-[3-(propan-2-yl)-[1,2,4]triazolo[4,3-a]pyrazin-6-yl]benzenesulfonyl}piperidin-4-yl)-5-[(trifluoromethyl)sulfanyl]pyridin-2-amine]
79.4	10	N#Cc1c[nH]c2ccc(-c3ccc(S(=O)(=O)N4CCC(Nc5ccc(OC(F)(F)F)cc5)CC4)cc3)cc12 [Example 13, 5-{4-[(4-{[4-(trifluoromethoxy)phenyl]Amino}piperidin-1-yl)sulfonyl]phenyl}-1H-indole-3-carbonitrile]
63.1	2	Cc1cc(-c2ccc(S(=O)(=O)N3CCC(Nc4ccc(SC(F)(F)F)cn4)CC3)cc2)cn2c(C(C)C)nnc12 [Example 68, N-(1-{4-[8-methyl-3-(propan-2-yl)-[1,2,4]triazolo[4,3-a]pyridin-6-yl]benzenesulfonyl}piperidin-4-yl)-5-[(trifluoromethyl)sulfanyl]pyridin-2-amine]
79.4	12.6	O=c1[nH]nc2ccc(-c3ccc(S(=O)(=O)N4CCC(Nc5ccc(SC(F)(F)F)cn5)CC4)cc3)cn12 [Example 74, 6-(4-{[4-({5-[(trifluoromethyl)sulfanyl]pyridin-2-yl}amino)piperidin-1-yl]sulfonyl}phenyl)-2H,3H-[1,2,4]triazolo[4,3-a]pyridin-3-one]
25.1	5.01	CC(C)c1nnc2ccc(-c3ccc(S(=O)(=O)N4CCC(Nc5ccc(SC(F)(F)F)cn5)CC4)cc3)cn12 [Example 65, N-(1-{4-[3-(propan-2-yl)-[1,2,4]triazolo[4,3-a]pyridin-6-yl]benzenesulfonyl}piperidin-4-yl)-5-[(trifluoromethyl)sulfanyl]pyridin-2-amine]
126	50.1	Cc1n[nH]c2ccc(-c3ccc(S(=O)(=O)N4CCC(Nc5ccc(OC(F)(F)F)cc5)CC4)cc3)cc12 [Example 6, 1-[4-(3-methyl-1H-indazol-5-yl)benzenesulfonyl]-N-[4-(trifluoromethoxy)phenyl]piperidin-4-amine]
